Experimental data from EP4778933A1 (Chengdu Hyperway Pharmaceuticals Co., Ltd., priority 2023, dated 2025).

How the values were obtained:
[1] = system: human ovarian cancer RKN mouse xenograft tumors; assay: In vivo drug efficacy, RKN subcutaneous xenograft tumor model; parameters: species or system Balb/c nude mice; settings: 50 mg/kg, PO; for inhibitory effects on human ovarian cancer RKN mouse xenograft tumors: BID, 28 days; for Tumor volume inhibition rate (TGI): RKN xenograft, BID × 28, day 28
Description: A subcutaneous xenograft tumor model of human ovarian cancer RKN (derived from uterine leiomyosarcoma) cells was established in Balb/c nude mice. RKN tumor cells resuspended in Ham's F12 medium were inoculated subcutaneously on the right side of the experimental animals at 5×10^6 + gel/0.1 mL. When the tumor grew to about 150-200 mm^3, 20 animals having relatively uniform tumor volumes were selected for group administration, with a total of 4 groups, 5 animals in each group. On the day of the experiment, the animals were given the corresponding drugs according to the groups. The first group G1 was set as a solvent group, and 50 mM citrate buffer (pH 5.0) + 10% Captisol was given by gavage alone. The second group G2 was given a 50 mM citrate buffer (pH 5.0) + 10% Captisol of compound 21. The third group G3 was given a 50 mM citrate buffer (pH 5.0) + 10% Captisol of compound 26. The fourth group G4 was given a 50mM citrate buffer (pH 5.0) + 10% Captisol of compound 31. Table 7: Study on effect of test substances on animal tumor size in the human ovarian cancer RKN mouse xenograft tumor model
(§1) During the experiment, the body weight and tumor size of the animals were measured twice a week, and the clinical symptoms of the animals were observed and recorded every day. Each drug administration was based on the most recent weighing of the animals.
(§2) The tumor was measured with a digital vernier caliper to measure the length (a) and width (b). The tumor volume (TV) was calculated using the following formula: TV = a × b^2 /2. [formula]

[2] = system: human colon cancer GP2D mouse xenograft tumors; assay: In vivo drug efficacy, GP2D subcutaneous xenograft tumor model; parameters: species or system Balb/c nude mouse; settings: 30 mg/kg, PO; for inhibitory effects on human colon cancer GP2D mouse xenograft tumors: BID, 28 days; for Tumor volume inhibition rate (TGI): GP2D xenograft, BID × 28, day 28
Description: A human colon cancer GP2D cell subcutaneous xenograft tumor Balb/c nude mouse model was established. GP2D tumor cells resuspended in DMEM medium were inoculated subcutaneously on the right side of the experimental animal at 1×10^7 + gel/0.1 mL. When the tumor grew to about 150-200 mm^3, administration in groups began, with 5 animals in each group. On the day of the experiment, the animals were given corresponding drugs according to the groups. The first group G1 was set as a solvent group, and 50 mM citrate buffer (pH 5.0) + 10% Captisol was given by gavage alone. The second group G2 was given a 50 mM citrate buffer (pH 5.0) + 10% Captisol of compound 26. The third group G3 was given a 50 mM citrate buffer (pH 5.0) + 10% Captisol of compound 31. Table 5: Study on effect of test substances on animal tumor size in human colon cancer GP2D mouse xenograft tumor model
as §1, §2

KP2 (KRAS G12R) = assay: 3D cell proliferation inhibition test (CellTiter-Glo 3D, 7 days), KP2; assay type: cell-based; settings: 168 h, read-out: Inhibitory activity on cell proliferation (IC50) KP2 (KRAS G12R)
Description: The diluted compounds to be tested were added to 384-well low-adhesion KRAS mutant types (such as GP2D, NCI H358, LoVo, RKN and KP2) of cell culture plates by using a nanoliter pipetting system (LABCYTE, P-0200). Then, the cells were plated and incubated in a 37°C, 5% CO2 incubator for 7 days. Afterward, CellTiter-Glo® 3D reagent was added, and the luminescent values were read by an Envision multifunctional microplate reader (the luminescent signal is proportional to the amount of ATP in the system, and the ATP content directly represents the number of viable cells in the system). Finally, the IC50 values (half-maximal inhibitory concentration) of the compounds were obtained by the XLFIT software using the nonlinear fitting formula.
• a) The diluted compounds to be tested were added to 384-well low-adhesion KRAS mutant types of cell culture plates by using a nanoliter pipetting system. • b) Cells were seeded into the 384-well plates in a) and then centrifuged at 1000 rpm for 1 min at room temperature, with a final DMSO concentration of compound being 0.5%. The plates were then incubated in a 5% CO2 constant-temperature incubator at 37°C for 7 days. • c) CellTiter-Glo® 3D was added to the 384-well cell culture plates in b), shaken in the dark, and incubated at room temperature. • d) The luminescence values were read by using an Envision multifunctional microplate reader. […]

Row | Structure (SMILES) | inhibitory effects on human ovarian cancer RKN mouse xenograft tumors [1] | Tumor volume inhibition rate (TGI) [1] [%] | inhibitory effects on human colon cancer GP2D mouse xenograft tumors [2] | Tumor volume inhibition rate (TGI) [2] [%] | IC50 (KP2 (KRAS G12R)) [µM]
1 | CC1(O)COCCN(c2nc(OCC34CCCN3C(c3cc(F)c(F)c(F)c3)CC4)nc3c(F)c(-c4cccc5sc(N)c(C#N)c45)c(I)cc23)C1 (single isomer, unassigned) [Example 31, 2-amino-4-[6-iodo-8-fluoro-4-(6-hydroxy-6-methyl-1,4-oxazepan-4-yl)-2-({[3-(3,4,5-trifluorophenyl)-2,3,5,6,7,7a-hexahydro-1H-pyrrolizin-7a-yl]methyl}oxy)quinazolin-7-yl]benzo[b]thiophene-3-carbonitrile] | significant inhibitory effects | 116 | significant inhibitory effects | 86.7 | 0.0591
2 | CC1(O)COCCN(c2nc(OCC34CCCN3C(c3cc(F)c(F)c(F)c3)CC4)nc3c(F)c(-c4cccc5sc(N)c(C#N)c45)c(Br)cc23)C1 (single isomer, unassigned) [Example 26, 2-amino-4-[6-bromo-8-fluoro-4-(6-hydroxy-6-methyl-1,4-oxazepan-4-yl)-2-({[3-(3,4,5-trifluoropheny 1)-2,3,5,6,7,7a-hexahydro-1H-pyrrolizin-7a-yl]methyl}oxy)quinazolin-7-yl]benzo[b]thiophene-3-carb onitrile] | significant inhibitory effects | 116 | significant inhibitory effects | 72.7 | 0.0566
